Experiments:
[1] = (§1) MMV: Anti-babesial activity assay. Parasite pRBCs at 1% parasitemia were cultivated in 100 ul with 96-well plates at 2.5% and 5% hematocrits. The parasites were cultivated in triplicate for 4 days without replacement of the medium for each concentration of the compound.; type: functional, Babesia caballi
[2] = as §1; type: functional, Babesia bovis
[3] = as §1; type: functional, Babesia equi
[4] = as §1; type: functional, Babesia bigemina

CC(C)(C)c1ccc(C(=O)Nc2c3c(nn2-c2cccc(Cl)c2)CSC3)cc1
IC50 [1]: 17 µM
IC50 [2]: 4.21 µM
IC50 [3]: 8.96 µM
IC50 [4]: 0.72 µM

CCN(Cc1ccccc1)C1CCN(Cc2cc(Br)ccc2O)CC1
IC50 [1]: 6.51 µM
IC50 [2]: 18.2 µM
IC50 [3]: 3.03 µM
IC50 [4]: 20.2 µM

COc1cc2c(cc1OC)C1=NNC(=O)C1=NC(C)(C)C2
IC50 [1]: 4.48 µM
IC50 [2]: 6.8 µM
IC50 [3]: 3.61 µM
IC50 [4]: 12.9 µM

O=C(Cc1ccccc1)NC(c1ccc(Cl)cc1)c1c(O)ccc2ccccc12 (stereo not given)
IC50 [1]: 10 µM
IC50 [2]: 1 µM
IC50 [3]: 12.7 µM
IC50 [4]: 13.1 µM

CCOc1ccc(-c2nonc2NC(=O)c2cccc(C)c2)cc1OCC
IC50 [1]: 17.5 µM
IC50 [2]: 19.9 µM
IC50 [3]: 18.5 µM
IC50 [4]: 13.1 µM

OC(Cn1nnc2ccccc21)Cn1c2ccc(Br)cc2c2cc(Br)ccc21 (stereo not given)
IC50 [1]: 15.9 µM
IC50 [2]: 0.1 µM
IC50 [3]: 12.6 µM
IC50 [4]: 1.3 µM

CCCc1c(C)nc2ccc(Br)cc2c1O
IC50 [1]: 0.1 µM
IC50 [2]: 16.5 µM
IC50 [3]: 13.3 µM
IC50 [4]: 11.9 µM

CCOC(=O)C1=C(C)N=c2sc(=Cc3ccccc3O)c(=O)n2C1c1ccc(OC)c2ccccc12 (stereo not given)
IC50 [1]: 8.43 µM
IC50 [2]: 21.7 µM
IC50 [3]: 10 µM
IC50 [4]: 16 µM

CN1C=C(c2ccc3ccccc3n2)C(c2c[nH]c3ccccc23)c2ccccc21 (stereo not given)
IC50 [1]: 0.304 µM
IC50 [2]: 5.9 µM
IC50 [3]: 5.12 µM
IC50 [4]: 4.52 µM

O=C(Nc1cccc(C(F)(F)F)c1)c1cc(Cl)ccc1O
IC50 [1]: 5.21 µM
IC50 [2]: 0.82 µM
IC50 [3]: 5.1 µM
IC50 [4]: 3.71 µM

COc1cccc(O)c1CN1CCC2(CCCN(Cc3ccc(F)cc3)C2)C1 (stereo not given)
IC50 [1]: 3.09 µM
IC50 [2]: 2.45 µM
IC50 [3]: 4.6 µM
IC50 [4]: 10 µM

OC1=C2C(=Nc3ccccc3SC2c2ccccc2)c2ccccc21 (stereo not given)
IC50 [1]: 8.77 µM
IC50 [2]: 0.1 µM
IC50 [3]: 0.1 µM
IC50 [4]: 0.5 µM

Clc1cc(Br)ccc1-c1ccc(CNCC2CCNCC2)o1
IC50 [1]: 12.4 µM
IC50 [2]: 0.33 µM
IC50 [3]: 5.93 µM
IC50 [4]: 4.19 µM

COc1ccc(C(O)(CCC(C)C)C(CN2CCOCC2)c2ccc(Cl)cc2)cc1 (stereo not given)
IC50 [1]: 14.8 µM
IC50 [2]: 0.091 µM
IC50 [3]: 3.45 µM
IC50 [4]: 0.068 µM

Oc1c(C(Nc2ccccn2)c2cccc(Oc3ccccc3)c2)ccc2cccnc12 (stereo not given)
IC50 [1]: 10 µM
IC50 [2]: 6.72 µM
IC50 [3]: 12.6 µM
IC50 [4]: 3.34 µM

COc1ccc(CCn2c(=N)c(C(=O)NCc3cccnc3)cc3c(=O)n4cccc(C)c4nc32)cc1
IC50 [1]: 4.27 µM
IC50 [2]: 0.13 µM
IC50 [3]: 0.41 µM
IC50 [4]: 0.052 µM

CN(C)CCCNCc1ccc(-c2ccc(F)c(Cl)c2)o1
IC50 [1]: 0.69 µM
IC50 [2]: 2.45 µM
IC50 [3]: 4.09 µM
IC50 [4]: 4.61 µM

CCOc1cc2c(cc1OCC)C(c1cc(C)c(O)c(C)c1)NCC2 (stereo not given)
IC50 [1]: 21.1 µM
IC50 [2]: 1 µM
IC50 [3]: 3.7 µM
IC50 [4]: 19.2 µM

Oc1ccc(Br)cc1CN1CCN(Cc2ccc(Cl)cc2)CC1
IC50 [1]: 3.86 µM
IC50 [2]: 8.61 µM
IC50 [3]: 2.95 µM
IC50 [4]: 25 µM

COc1cccc(Nc2nc(N)c3ccccc3n2)c1
IC50 [1]: 2.95 µM
IC50 [2]: 0.12 µM
IC50 [3]: 17.2 µM
IC50 [4]: 0.057 µM

CCOc1c(Br)cc(C2C(C(=O)OC)=CN(C)C=C2C(=O)OC)cc1OC
IC50 [1]: 11.9 µM
IC50 [2]: 0.072 µM
IC50 [3]: 9.18 µM
IC50 [4]: 0.25 µM

CCOC(=O)C1=C(C)N=c2sc(=Cc3cc(Cl)ccc3O)c(=O)n2C1c1ccc(OC)cc1 (stereo not given)
IC50 [1]: 15.9 µM
IC50 [2]: 18.1 µM
IC50 [3]: 14.6 µM
IC50 [4]: 14.1 µM

O=C(Nc1ccc(CN2CCOCC2)cc1)c1ccc(-c2cc(Cl)ccc2Cl)o1
IC50 [1]: 0.069 µM
IC50 [2]: 25 µM
IC50 [3]: 10 µM
IC50 [4]: 10 µM

O=C(NC1CCN(Cc2ccccc2)CC1)c1cc2nc(-c3ccc(Cl)s3)cc(C(F)(F)F)n2n1
IC50 [1]: 4.13 µM
IC50 [2]: 1.42 µM
IC50 [3]: 13.9 µM
IC50 [4]: 0.065 µM

CC(C)(C)c1ccc(O)c(CNC2CCCCC2)c1
IC50 [1]: 10 µM
IC50 [2]: 18.2 µM
IC50 [3]: 7 µM
IC50 [4]: 17 µM

O=C(NC(c1ccccc1)c1ccc2cccnc2c1O)c1ccccc1 (stereo not given)
IC50 [1]: 0.55 µM
IC50 [2]: 1 µM
IC50 [3]: 0.47 µM
IC50 [4]: 0.93 µM

OCCNc1nc(Nc2ccc(Cl)c(Cl)c2)nc2ccccc12
IC50 [1]: 0.1 µM
IC50 [2]: 0.52 µM
IC50 [3]: 1.39 µM
IC50 [4]: 3.34 µM

COc1ccccc1N1CCN(C(CNS(=O)(=O)c2ccc(Cl)cc2)c2cccnc2)CC1 (stereo not given)
IC50 [1]: 13.5 µM
IC50 [2]: 0.669 µM
IC50 [3]: 17.2 µM
IC50 [4]: 2.16 µM

C=C(C)CCC(C)N1CCC(N2CCC(C(=O)NCCc3ccccc3)CC2)CC1 (stereo not given)
IC50 [1]: 12.9 µM
IC50 [2]: 4.37 µM
IC50 [3]: 4.89 µM
IC50 [4]: 2.4 µM

O=C(Nc1ccc(Cl)cc1)N1CCN(c2ccc3nncn3n2)CC1
IC50 [1]: 16.3 µM
IC50 [2]: 16.3 µM
IC50 [3]: 1.02 µM
IC50 [4]: 1 µM

CCCn1c(=N)c(C(=O)NC2CCCCC2)cc2c(=O)n3cccc(C)c3nc21
IC50 [1]: 6.08 µM
IC50 [2]: 5.7 µM
IC50 [3]: 2.95 µM
IC50 [4]: 13.3 µM

COc1cccc(Nc2nc(NCCO)c3ccccc3n2)c1
IC50 [1]: 1.3 µM
IC50 [2]: 6.99 µM
IC50 [3]: 4.09 µM
IC50 [4]: 1 µM

N#Cc1nc(Cc2cccc3ccccc23)oc1N1CCN(C(c2ccccc2)c2ccccc2)CC1
IC50 [1]: 5.09 µM
IC50 [2]: 16.1 µM
IC50 [3]: 12 µM
IC50 [4]: 19.8 µM

CCOc1ccccc1NC(=O)CN1CCN(C(=O)c2ccco2)CC1
IC50 [1]: 3.81 µM
IC50 [2]: 25 µM
IC50 [3]: 10.3 µM
IC50 [4]: 17.5 µM

COc1ccc2nc(C)cc(Nc3ccccc3O)c2c1
IC50 [1]: 1 µM
IC50 [2]: 25 µM
IC50 [3]: 8.83 µM
IC50 [4]: 15.3 µM

CCN(CC)CCNc1ccnc2cc3ccccc3cc12
IC50 [1]: 5.09 µM
IC50 [2]: 7.72 µM
IC50 [3]: 5.69 µM
IC50 [4]: 3.25 µM

O=c1nc(C=Cc2ccc(Cl)cc2)oc2ccccc12
IC50 [1]: 11.5 µM
IC50 [2]: 14.3 µM
IC50 [3]: 8.25 µM
IC50 [4]: > 25 µM

O=C(CCc1ccco1)NC1CCN(CC2(c3ccc(Cl)cc3)CCC2)CC1
IC50 [1]: > 25 µM
IC50 [2]: 5.06 µM
IC50 [3]: 3.39 µM
IC50 [4]: 1.87 µM

COc1cccc(NC(=O)Cn2c(C)c(C#N)c3ccccc32)c1
IC50 [1]: 10.1 µM
IC50 [2]: 9.04 µM
IC50 [3]: 7.3 µM
IC50 [4]: 14.8 µM

CCN1CCN(c2c(C(=O)c3ccccc3)cnc3cc(OC)c(OC)cc23)CC1
IC50 [1]: 15.9 µM
IC50 [2]: 0.86 µM
IC50 [3]: 13 µM
IC50 [4]: 1.21 µM

CCOC(=O)c1cnc2c(C)cccc2c1Nc1ccc(C(C)=O)cc1
IC50 [1]: 6.08 µM
IC50 [2]: 19.6 µM
IC50 [3]: 12.6 µM
IC50 [4]: > 25 µM

COc1ccc2c(c1OC)C(=O)N1c3ccccc3N=C(c3ccc(C)cc3)CC21 (stereo not given)
IC50 [1]: 17.1 µM
IC50 [2]: 13 µM
IC50 [3]: 14.6 µM
IC50 [4]: 16.1 µM

COc1ccc(-c2cc3c(SCC(=O)Nc4cc(C(F)(F)F)ccc4Cl)nccn3n2)cc1
IC50 [1]: 9.61 µM
IC50 [2]: > 25 µM
IC50 [3]: 25 µM
IC50 [4]: 17.1 µM

Cc1cc(C)cc(Nc2cc(C)nc3nc(C(F)(F)F)nn23)c1
IC50 [1]: 12.4 µM
IC50 [2]: 20.6 µM
IC50 [3]: 21.9 µM
IC50 [4]: 13.6 µM

O=C(NC1CCCC1)c1ccc(N2CCC(NCc3cccc(C(F)(F)F)c3)CC2)cc1
IC50 [1]: 13.4 µM
IC50 [2]: 14 µM
IC50 [3]: 10 µM
IC50 [4]: 25 µM

— ChEMBL document CHEMBL3301464, “MMV Malaria Box anti-babesial screening”
